Measured values as given in patent publication US20210238139A1, “MODULATORS OF TRYPTOPHAN CATABOLISM” (E-Therapeutics PLC, priority 2018, published 2021).

Tests used:
SK-OV-3 cells = test: Effect of compounds on tryptophan catabolism in SK-OV-3 cell line (inhibition of kynurenine production, LC-MS/MS); assay type: cell-based; details: for IC50: Homo sapiens, SK-OV-3, 24 h, SK-OV-3 cell line, 24 h incubation, kynurenine in supernatant by LC-MS/MS, read-out: IC50 Ranges (ic50 values for inhibition of Kynurenine production)
Summary of the method: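 Cells seeded overnight in McCoy's 5A/10% FBS, then switched to DMEM F-12 with 6 mg/mL L-tryptophan; compounds added at 8 3-fold dilutions from 30 μM, in duplicate, 24 h at 37 °C. Supernatant kynurenine measured by LC-MS/MS; ATP-based viability run in parallel; IC50 from % inhibition of Kyn production.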

[1] = tested on: monocyte-derived dendritic cells; test: Effect of compounds on tryptophan catabolism in monocyte-derived dendritic cells (kynurenine production); assay type: cell-based; details: Homo sapiens, Dendritic cell; dendritic cells triggered with LPS and IFNγ, 24 h with compound
Method: (§1) Peripheral blood mononuclear cells are isolated from buffy coats from healthy volunteers by Lymphoprep density gradient centrifugation, followed by lysis of residual erythrocytes with isotonic buffer solution of ammonium chloride. CD14+ cells are isolated by positive selection using MACS® technology and CD14 MicroBeads (Miltenyi Biotec) according to manufacturer's instructions. The isolated monocytes are differentiated into dendritic cells by incubation for 5 days in RPMI-1640 medium supplemented with 10% fetal bovine serum (FBS), 50 ng/mL GM-CSF and 35 ng/mL IL-4. After 5 days the DCs are seeded in 96-well plates in DMEM supplemented with 10% charcoal stripped FBS, GM-CSF and IL-4. The following day cells are triggered with LPS and IFNγ. After 24 h of incubation medium is replaced with DMEM F-12 medium supplemented with 6 mg/mL L-tryptophan and 10% charcoal stripped FBS. Compounds are added to the cells and incubated for 24 h at 37° C., 5% CO2, 95% humidity. Compounds are tested at 7 consecutive 4-fold dilutions starting from 30 μM in duplicate.
(§2) At the end of incubation concentration of kynurenine in cell supernatants is determined by LC-MS/MS. In parallel, cell viability is assessed by measurement of ATP by use of CellTiter Glo assay (Promega) according to manufacturer's protocol.
Inhibition of Kyn production is calculated using the following formula:
(1−(Kyn conc. cmpd.−Kyn conc. medium)/(Kyn conc. medium with cells−Kyn conc. medium))·100
IC50 values are determined using GraphPad Prism software 5.04 for Windows, by plotting percent of inhibition against log 10 concentrations of compounds using a four-parametric sigmoidal curve with a variable slope.

[2] = tested on: monocyte-derived dendritic cells; test: Cell viability / cytotoxicity in monocyte-derived dendritic cells (ATP, CellTiter Glo); assay type: cell-based, human; details: 24 h, unit assumed
Method: as §1, §2
Cell viability results are analysed in Microsoft Excel and expressed as fold change over untreated control.

IDO1 enzyme = biological target: T1, IDO1 enzyme (Homo sapiens, UniProt P14902); test: IDO1 enzyme inhibition assay (hIDO assay kit, NFK-green); details: IDO1 enzyme 25 nM, tryptophan 100 μM, top concentration 30 μM; read-out: IDO1 Biochemical assay IC50
T1 construct: purchased Netherlands Translational Research Center B.V. NTRC-hIDO-1K
Method: The effect of compounds on IDO1 enzymatic activity was assessed by use of a hIDO assay kit (Netherlands Translational Research Center B.V., Cat #NTRC-hIDO-1K). IDO1 enzyme and tryptophan substrate are diluted in assay buffer. Compounds are tested at 8 consecutive 3-fold dilutions starting from 30 μM. 267 nL of compound is added per well of a 384-well plate followed by addition of 10 μL of assay buffer. IDO1 enzyme is added at a final concentration of 25 nM and pre-incubated for 30 min at room temperature in the dark. Tryptophan substrate solution is then added at final concentration of 100 μM to all wells and the plate incubated for 60 min at RT in the dark. Finally NFK-green reagent is added at ⅕ of total reaction volume and incubated for 4 h at RT in the dark. After incubation fluorescence is measured at Ex405 nm-Em535 nm using EnVision plate reader.
(§3) IC50 values are determined using GraphPad Prism software 5.04 for Windows by plotting percent of inhibition against log 10 concentrations of compounds using a four-parametric sigmoidal curve with a variable slope.

TDO2 enzyme = biological target: T2, TDO2 enzyme (Homo sapiens, UniProt P48775); test: TDO2 enzyme inhibition assay (hTDO2 assay kit, NFK-green); details: TDO2 enzyme 50 nM, tryptophan 200 μM, top concentration 30 μM; read-out: TDO2 Biochemical assay IC50
T2 construct: purchased Netherlands Translational Research Center B.V. NTRC-hTDO-1K
Method: The effect of compounds on TDO2 enzymatic activity was assess by use of an hTDO2 assay kit (Netherlands Translational Research Center B.V., Cat #NTRC-hTDO-1K). TDO2 enzyme and tryptophan substrate are diluted in assay buffer. Compounds are tested at 8 consecutive 3-fold dilutions starting from 30 μM. 267 nL of compound is added per well of a 384-well plate followed by addition of 10 μL of assay buffer. TDO2 enzyme is added at a final concentration of 50 nM and pre-incubated for 60 min at room temperature in the dark. Tryptophan substrate solution is then added at final concentration of 200 μM to all wells and the plate incubated for 15 min at RT in the dark. Finally NFK-green reagent is added at ⅕ of total reaction volume and incubated for 4 h at RT in the dark. After incubation fluorescence is measured at Ex405 nm-Em535 nm using EnVision plate reader.
as §3

[3] = tested on: IDO1 protein in SK-OV-3 cells; test: Effect of compounds on IDO1 expression in SK-OV-3 cell line (Western analysis, normalised to GAPDH); assay type: cell-based; details: 24 hours exposure
Method: SK-OV-3 cells are seeded in 24-well plates in McCoy's 5A medium supplemented with 10% FBS at density of 250000 cells per well and incubated overnight at 37° C., 5% CO2, 95% humidity. The following day growth medium is replaced with DMEM F-12 medium containing 6 mg/mL L-tryptophan. Compounds are added to the wells and the plate is incubated for 24 h at 37° C., 5% CO2, 95% humidity. At the end of incubation medium is removed, cells are washed and then lysed in RIPA buffer. Protein concentrations in the samples are determined using BCA method (Thermo Scientific) and adjusted to 0.5 mg/mL. Western analysis is performed on the Wes system (Protein Simple) using IDO1 (Cell Signalling; Cat #12006S) and GAPDH (Abcam, Cat #ab9485) antibodies. Expression of IDO1 is normalised to GAPDH.

T1 sequence (P14902 whole entry): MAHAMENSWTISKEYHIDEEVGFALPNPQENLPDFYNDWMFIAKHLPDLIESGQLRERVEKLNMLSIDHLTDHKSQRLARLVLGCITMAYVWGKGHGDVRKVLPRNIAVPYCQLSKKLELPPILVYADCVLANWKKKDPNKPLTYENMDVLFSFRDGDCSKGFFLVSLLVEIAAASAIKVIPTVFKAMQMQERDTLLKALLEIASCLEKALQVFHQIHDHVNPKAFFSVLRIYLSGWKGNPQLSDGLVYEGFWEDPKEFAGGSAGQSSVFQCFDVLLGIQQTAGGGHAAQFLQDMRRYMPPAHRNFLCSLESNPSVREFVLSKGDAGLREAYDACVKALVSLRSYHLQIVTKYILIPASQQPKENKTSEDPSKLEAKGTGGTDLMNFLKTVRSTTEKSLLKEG
T2 sequence (P48775 whole entry): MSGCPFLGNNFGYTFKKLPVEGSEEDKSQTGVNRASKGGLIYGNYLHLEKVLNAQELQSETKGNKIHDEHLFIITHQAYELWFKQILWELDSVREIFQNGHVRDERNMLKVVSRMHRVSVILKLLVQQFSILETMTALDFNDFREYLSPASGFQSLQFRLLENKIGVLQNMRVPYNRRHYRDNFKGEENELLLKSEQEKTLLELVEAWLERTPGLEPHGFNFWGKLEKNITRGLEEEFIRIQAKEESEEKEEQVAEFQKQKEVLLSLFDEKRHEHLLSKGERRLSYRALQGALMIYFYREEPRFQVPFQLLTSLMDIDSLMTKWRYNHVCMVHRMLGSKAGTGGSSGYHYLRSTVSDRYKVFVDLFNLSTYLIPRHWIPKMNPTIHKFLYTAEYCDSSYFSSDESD

Compound | IC50 (SK-OV-3 cells) | IC50 [1] | IC50 (IDO1 enzyme) | IC50 (TDO2 enzyme) | Cell viability at 30 uM (% of untreated control) [2] | inhibition of kynurenine production by SKOV-3 (FIG. 1b) (SK-OV-3 cells; SKOV-3 cells, 24 hours exposure) | reduction in IDO1 protein in SKOV-3 cells (FIG. 1a) [3]
Cc1ccc(CN(C(=O)NCCc2ccccc2)C2CCCC2)s1 [Compound 26, 1-cyclopentyl-1-[(5-methyl-2-thienyl)methyl]-3-(2-phenylethyl)urea] | < 100 nM | 100 nM |  |  | 19% |  | 
O=C(Nc1ccc(Cl)cc1)N(Cc1cccs1)C1CCCC1 [Compound 56, 3-(4-chlorophenyl)-1-cyclopentyl-1-(2-thienylmethyl)urea] | < 100 nM | 250 nM |  |  | 94% |  | 
O=C(Nc1ccc(Cl)cc1)N(Cc1cccc(C(F)(F)F)c1)C1CCC1 [Compound 90, 3-(4-chlorophenyl)-1-cyclobutyl-1-[[3-(trifluoromethyl)-phenyl]methyl]urea] | < 100 nM | 66 nM |  | > 30000 nM | 67% |  | 
O=C(Nc1ccc(F)c(F)c1)N(Cc1ccc(F)c(C(F)(F)F)c1)C1CCCC1 [Compound 139, 1-cyclopentyl-3-(3,4-difluorophenyl)-1-[[4-fluoro-3-(trifluoromethyl)phenyl]methyl]urea] | < 100 nM | 270 nM |  |  | 77% |  | 
O=C(Nc1ccc(F)c(F)c1)N(Cc1cccc(C(F)(F)F)c1)C1CCCC1 [Compound 140, 1-cyclopentyl-3-(3,4-difluorophenyl)-1-[[3(trifluoromethyl)phenyl]methyl]urea] | < 100 nM | 320 nM |  |  | 92% |  | 
O=C(Nc1ccc(F)c(F)c1)N(Cc1ccc(F)c(OC(F)(F)F)c1)C1CCCC1 [Compound 141, 1-cyclopentyl-3-(3,4-difluorophenyl)-1-[[4-fluoro-3 (trifluoromethoxy)phenyl]methyl]urea] | < 100 nM | 470 nM |  |  | 90% |  | 
Cc1ncc(CN(C(=O)Nc2ccc(Cl)cc2)C2CCCC2)o1 [Compound 144, 3-(4-chlorophenyl)-1-cyclopentyl-1-[(2-methyloxazol-5-yl)methyl]urea] | 100 to 500 nM | 380 nM | > 30000 nM | > 30000 nM | 109% |  | 
N#Cc1cc(CN(C(=O)Nc2ccc(Cl)cc2)C2CCCC2)ccc1F [Compound 146, 3-(4-chlorophenyl)-1-[(3-cyano-4-fluoro-phenyl)methyl]-1-cyclopentyl-urea] | < 100 nM | 120 nM |  |  | 103% |  | 
O=C(Nc1ccc(Cl)cc1)N(Cc1ccnc(C(F)(F)F)c1)C1CCCC1 [Compound 148, 3-(4-chlorophenyl)-1-cyclopentyl-1-[[2-(trifluoromethyl)-4-pyridyl]methyl]urea] | < 100 nM | 150 nM |  |  | 103% |  | 

More lines, main results first:

IC50 (SK-OV-3 cells) | IC50 [1] | IC50 (IDO1 enzyme) | IC50 (TDO2 enzyme) | Compound | Cell viability at 30 uM (% of untreated control) [2] | inhibition of kynurenine production by SKOV-3 (FIG. 1b) (SK-OV-3 cells; SKOV-3 cells, 24 hours exposure) | reduction in IDO1 protein in SKOV-3 cells (FIG. 1a) [3]
< 100 nM | 26 nM | > 30000 nM | > 30000 nM | Cc1ccc(CN(C(=O)Nc2ccc(C#N)cc2)C2CCCC2)o1 [Compound 80, 3-(4-cyanophenyl)-1-cyclopentyl-1-[(5-methyl-2-furyl)methyl]urea] | 112% |  | 
100 to 500 nM | 300 nM |  |  | Cc1ccc(CN(C(=O)Nc2ccc(F)cc2)C2CCC2)o1 [Compound 82, 1-cyclobutyl-3-(4-fluorophenyl)-1-[(5-methyl-2-furyl)methyl]urea] | 85% |  | 
< 100 nM | 130 nM | > 30000 nM | > 30000 nM | Cc1ccc(CN(C(=O)Nc2ccc(Cl)cc2)C2CCC2)o1 [Compound 83, 3-(4-chlorophenyl)-1-cyclobutyl-1-[(5-methyl-2-furyl)methyl]urea] | 89% |  | 
< 100 nM | 180 nM |  |  | Cc1ccc(CN(C(=O)Nc2ccc(C#N)cc2)C2CCC2)o1 [Compound 84, 3-(4-cyanophenyl)-1-cyclobutyl-1-[(5-methyl-2-furyl)methyl]urea] | 108% |  | 
< 100 nM | 65 nM |  |  | N#Cc1ccc(NC(=O)N(Cc2cccc(C(F)(F)F)c2)C2CCCC2)cc1 [Compound 89, 3-(4-cyanophenyl)-1-cyclopentyl-1-[[3-(trifluoromethyl)phenyl]methyl]urea] | 81% |  | 
< 100 nM | 36 nM |  |  | N#Cc1ccc(NC(=O)N(Cc2cccc(C(F)(F)F)c2)C2CCC2)cc1 [Compound 91, 3-(4-cyanophenyl)-1-cyclobutyl-1-[[3-(trifluoromethyl)phenyl]methyl]urea] | 71% |  | 
< 100 nM |  |  | > 30000 nM | C#Cc1ccc(NC(=O)N(Cc2ccc(C)o2)C2CCCC2)cc1 [Compound 102, 1-cyclopentyl-3-(4-ethynylphenyl)-1-[(5-methyl-2-furyl)methyl]urea] |  | dose-dependent inhibition of kynurenine production | dose-dependent reduction in IDO1 protein
< 100 nM | 40 nM | > 30000 nM | > 30000 nM | Cc1ccc(CN(C(=O)Nc2ccc(Cl)cc2)C2CCCC2)o1 [Compound 137, 3-(4-chlorophenyl)-1-cyclopentyl-1-[(5-methyl-2-furyl)methyl]urea] | 88% |  | 
< 100 nM | 70 nM |  | > 30000 nM | N#Cc1cccc(CN(C(=O)Nc2ccc(Cl)cc2)C2CCCC2)c1 [Compound 147, 3-(4-chlorophenyl)-1-[(3-cyanophenyl)methyl]-1-cyclopentyl-urea] | 122% |  | 
< 100 nM |  | > 30000 nM | > 30000 nM | COCC#Cc1ccc(NC(=O)N(Cc2ccc(C)o2)C2CCCC2)cc1 [Compound 162, 1-cyclopentyl-3-[4-(3-methoxyprop-1-ynyl)phenyl]-1-[(5-methyl-2-furyl)methyl]urea] |  |  | 
